Data: article PMC12298827, “Subchronic Toxicities of Four Per- and Polyfluoroalkyl Substances (PFASs) by Oral Exposure in Sprague–Dawley Rats” (Toxics, 2025)

System: male and female Sprague–Dawley rats
Experiment: 90-day subchronic oral gavage toxicity study
Type: in vivo, rat
Protocol: Subchronic (90-day) studies were performed in accordance with current U.S. EPA’s Toxic Substances Control Act Good Laboratory Practice (GLP) Standards, with the following two general exceptions to the GLP guidelines: Analysis of the dose formulations was conducted according to RTI-approved Standard Operating Procedures, and corn oil (the vehicle) was not characterized (certificate of analysis from the vendor is available in the appendices to the final reports). Male and female Sprague–Dawley rats (five dose levels plus a control, n = 10/sex/dose group, corn oil vehicle dose volume of 3 mL/kg; oral gavage) were used in these studies, and the rats were euthanized on SD 91. The dose levels for PFHI were 0, 12.5, 25, 50, 100, and 200 mg/kg-day. The dose levels for MHFPK were 0, 18.8, 37.5, 75, 150, and 300 mg/kg-day. The dose levels for PFNAC were 0, 0.1, 0.3, 1.0, 3.0, and 10 mg/kg-day for male rats and 0, 0.3, 1.0, 3.0, 10, and 30 mg/kg-day for female rats. For CTFPA, the dose levels were 0, 1.9, 3.8. 7.5, 15, and 30 mg/kg-day for male rats and 0, 6.3, 12.5, 25, 50, and 100 mg/kg-day for female rats. For each PFAS, three batches of dosing solution were prepared. The time between the batch preparation of the dosing solutions ranged between 29 and 39 days. Blood samples were collected from all the rats at termination for serum chemistry, hematology, coagulation, and the analysis of the parent PFAS chemical in the plasma. In vivo data collection and further detail on the endpoints examined postmortem are described below.
The rats were observed twice daily for morbidity and mortality throughout the study period. At least once prior to randomization to test groups and weekly thereafter, the rats were physically examined, and bodyweights were obtained. Feed consumption was quantified weekly starting on SD 1.
Neurotoxicity was evaluated using the functional observational battery (FOB) and measuring locomotor activity (LMA) 2–4 h post dosing on SDs 78–80 and 80–84, respectively. For both the 14- and 90-day studies, an ophthalmologic examination was conducted prior to randomization and near the end of the study, using indirect ophthalmoscopy and slit–lamp biomicroscopy (as needed) after the administration of a mydriatic solution.
Hematology, biochemistry, and coagulation endpoints were measured at the termination of the study. A Siemens Advia 2120i hematology analyzer (Siemens Healthineers, Erlangen, Germany) was used to measure (or calculate) the parameters related to the complete blood count, leukocyte differential count, and reticulocyte count. The hematology parameters are listed and described in Table 2. The prothrombin time […] and activated partial thromboplastin time (APTT) were measured using an Instrumentation Laboratory (Bedford, MA, USA) ACL Elite Pro coagulation analyzer (laser–nephelometric centrifugal method).
At necropsy, the rats were visually examined for external abnormalities and organ weights (absolute and relative to the BW and brain weight), which were recorded (paired organs weighed together). The tissues were preserved in 10% neutral buffered formalin (NBF), except for the ocular tissues, testes, and epididymides, which were preserved in modified Davidson’s fixative and later transferred to 10% NBF. Bone marrow smears were prepared from the femurs, and the slides were air-dried, fixed in methanol, stained, and stored at room temperature for possible future evaluation. The preserved tissues were embedded in paraffin, sectioned, stained with hematoxylin and eosin, and examined by a board-certified veterinary pathologist.
Statistical analysis was performed using Provantis™ Version 10 or greater (Instem LSS, Limited; Stone, Staffordshire, UK). Differences among the treatment groups compared to the control were evaluated using one-way analysis of variance (ANOVA) if the underlying assumptions of a normal distribution (Shapiro–Wilk test) and the homogeneity of the variance (Levene’s test) were satisfied. […]

In the case of `C=CC(=O)OCC(F)(F)C(F)(F)C(F)(F)C(F)(F)C(F)(F)C(F)(F)C(F)(F)C(F)F` [PFNAC, 1H,1H,9H-Perfluorononyl acrylate], the “Liver/Body Weight” value (female, 30 mg/kg-day) is reported as 3.22%, the “Liver/Brain Weight” value (female, 30 mg/kg-day) is reported as 499% and the MPV (female, 30 mg/kg-day) is reported as 7.95 ± 0.58 fL. The PT (female, 30 mg/kg-day) was 14.44 s, the RBC (female, 30 mg/kg-day) was 7.067±0.364 M/µL and the “Total BW change” value (female, 30 mg/kg-day) was 106.79 g. For the same compound, the “Total Food Consumed” value (female, 30 mg/kg-day) was 1525 g, the “BMD10, absolute kidney weight increase” value (male) was 0.17 mg/kg-day and the “BMD10, absolute liver weight increase” value (male) was 0.09 mg/kg-day. The “BMD10, relative liver weight increase” value (male) was 0.15 mg/kg-day, the “BMDL, absolute kidney weight increase” value (male) was 0.06 mg/kg-day and the “BMDL, absolute liver weight increase” value (male) was 0.04 mg/kg-day. The “BMDL, relative liver weight increase” value (male) was 0.13 mg/kg-day, the “LOEL, absolute kidney weight increase” value (male) was 0.3 mg/kg-day and the “LOEL, absolute liver weight increase” value (male) was 0.3 mg/kg-day. The “LOEL, relative kidney weight increase” value (male) was 1.0 mg/kg-day, the “LOEL, relative liver weight increase” value (male) was 0.3 mg/kg-day and the “NOEL, absolute kidney weight increase” value (male) was 0.1 mg/kg-day. For the same compound, the “NOEL, absolute liver weight increase” value (male) was 0.1 mg/kg-day, the “NOEL, relative kidney weight increase” value (male) was 0.3 mg/kg-day and the “NOEL, relative liver weight increase” value (male) was 0.1 mg/kg-day. For the same compound, the “% BW Gain” value (male, 0.1 mg/kg-day) was 110.97%, the “% Diff, % BW Gain” value (male, 0.1 mg/kg-day) was 9.90% and the “% Diff, Total BW change” value (male, 0.1 mg/kg-day) was 10.47%. For the same compound, the “% Diff, Total Food Consumed” value (male, 0.1 mg/kg-day) was 3.57%, the A/G (male, 0.1 mg/kg-day) was 0.90±0.08 ratio and the ABNEUT (male, 0.1 mg/kg-day) was 4.163±1.653 K/µL. The ABRETi (male, 0.1 mg/kg-day) was 193.23±33.44 10^9/L, the ABSEOS (male, 0.1 mg/kg-day) was 0.112±0.047 K/µL and the ALB (male, 0.1 mg/kg-day) was 3.60 ± 0.21 g/dL. The ALPi (male, 0.1 mg/kg-day) was 138.7±40.9 U/L, the APTT (male, 0.1 mg/kg-day) was 23.16 s and the BUN (male, 0.1 mg/kg-day) was 16.2 ± 1.6 mg/dL. The CHOL (male, 0.1 mg/kg-day) was 73.4 ± 15.5 mg/dL, the GLOB (male, 0.1 mg/kg-day) was 4.03 ± 0.29 g/dL and the GLUC (male, 0.1 mg/kg-day) was 107.6 ± 8.6 mg/dL. The HCT (male, 0.1 mg/kg-day) was 46.10±4.64%, the HGB (male, 0.1 mg/kg-day) was 14.36 ± 1.40 g/dL and the “Kidney Weight” value (male, 0.1 mg/kg-day) was 3.14 g. For the same compound, the “Kidney/Body Weight” value (male, 0.1 mg/kg-day) was 0.51%, the “Kidney/Brain Weight” value (male, 0.1 mg/kg-day) was 141% and the “Liver Weight” value (male, 0.1 mg/kg-day) was 14.99 g. The “Liver/Body Weight” value (male, 0.1 mg/kg-day) was 2.41%, the “Liver/Brain Weight” value (male, 0.1 mg/kg-day) was 673% and the MPV (male, 0.1 mg/kg-day) was 7.82 ± 0.50 fL. For the same compound, the PT (male, 0.1 mg/kg-day) was 15.98 s, the RBC (male, 0.1 mg/kg-day) was 8.281±0.895 M/µL and the “Total BW change” value (male, 0.1 mg/kg-day) was 333.40 g. For the same compound, the “Total Food Consumed” value (male, 0.1 mg/kg-day) was 2298 g, the “% BW Gain” value (male, 0.3 mg/kg-day) was 113.17% and the “% Diff, % BW Gain” value (male, 0.3 mg/kg-day) was 12.08%. The “% Diff, Total BW change” value (male, 0.3 mg/kg-day) was 12.46%, the “% Diff, Total Food Consumed” value (male, 0.3 mg/kg-day) was 9.40% and the A/G (male, 0.3 mg/kg-day) was 0.98±0.10 ratio. For the same compound, the ABNEUT (male, 0.3 mg/kg-day) was 3.679±1.341 K/µL, the ABRETi (male, 0.3 mg/kg-day) was 224.66±50.41 10^9/L and the ABSEOS (male, 0.3 mg/kg-day) was 0.108±0.037 K/µL. For the same compound, the ALB (male, 0.3 mg/kg-day) was 3.74 ± 0.23 g/dL, the ALPi (male, 0.3 mg/kg-day) was 174.2±32.7 U/L and the APTT (male, 0.3 mg/kg-day) was 15.99 s. For the same compound, the BUN (male, 0.3 mg/kg-day) was 18.3 ± 1.6 mg/dL, the CHOL (male, 0.3 mg/kg-day) was 78.7 ± 16.8 mg/dL and the GLOB (male, 0.3 mg/kg-day) was 3.85 ± 0.30 g/dL. The GLUC (male, 0.3 mg/kg-day) was 112.1 ± 9.6 mg/dL, the HCT (male, 0.3 mg/kg-day) was 47.33±1.28% and the HGB (male, 0.3 mg/kg-day) was 14.69 ± 0.40 g/dL. For the same compound, the “Kidney Weight” value (male, 0.3 mg/kg-day) was 3.46 g, the “Kidney/Body Weight” value (male, 0.3 mg/kg-day) was 0.56% and the “Kidney/Brain Weight” value (male, 0.3 mg/kg-day) was 157%. The “Liver Weight” value (male, 0.3 mg/kg-day) was 17.52 g, the “Liver/Body Weight” value (male, 0.3 mg/kg-day) was 2.82% and the “Liver/Brain Weight” value (male, 0.3 mg/kg-day) was 793%. For the same compound, the MPV (male, 0.3 mg/kg-day) was 7.63 ± 0.44 fL, the PT (male, 0.3 mg/kg-day) was 15.10 s and the RBC (male, 0.3 mg/kg-day) was 8.282±0.259 M/µL. For the same compound, the “Total BW change” value (male, 0.3 mg/kg-day) was 339.42 g, the “Total Food Consumed” value (male, 0.3 mg/kg-day) was 2427 g and the “% BW Gain” value (male, 1.0 mg/kg-day) was 108.93%. The “% Diff, % BW Gain” value (male, 1.0 mg/kg-day) was 7.88% and the “% Diff, Total BW change” value (male, 1.0 mg/kg-day) was 4.36%.
